Laboratory results from patent US20200270216A1, “COMPOSITIONS AND METHODS FOR INHIBITING N-SMASE2” (The Regents of the University of California, priority 2017, published 2020).

Tested on: Thy1-aSyn mice
Experiment: Initial efficacy in Thy1-aSyn mice, aSyn immunofluorescence in substantia nigra
Type: in vivo
Settings: Thy-1 aSyn mice, 100 mg/kg/day oral, 5 weeks
Experimental: Mice overexpressing human wild-type a-synuclein under control of the Thy-1 promoter (Thy1-aSyn mice) and control C57B1/6 mice were housed under a 12-hour light/dark cycle and had access to standard chow ad libitum. […] Two hours after the last dose, mice were euthanized by ketamine/xylazine over-anesthesia followed by cardiac puncture and saline transcardial perfusion. Brain tissue from individual mice were dissected.
All staining procedures and data collection were performed by investigators blinded to treatment. Double-immunofluorescence for Clone 42 Anti-aSyn/TH in SN (substantia nigra). Analysis of a-synuclein and tyrosine hydroxylase (TH, the marker of dopaminergic neurons) levels was performed in serially sectioned, free-floating vibratome sections. […]
For the quantification of aSyn and TH fluorescent immunolabeling images of immunofluorescence-labeled sections were acquired using an Agilent (Santa Clara, Calif.) microarray scanner equipped with a krypton/argon laser (647 nm) at 10 μm resolution with the photomultiplier tube set at 5% for aSyn and 10% for TH. Immunofluorescence intensity was measured using ImageJ in the appropriate region of interest. TH staining was quantified in the SN pars compact and SN pars reticulate. […]

SMILES: O=c1[nH]c(=S)[nH]c(-c2ccccc2)c1Cc1c(O)ccc2ccccc12 [cambinol]
- aSyn levels in the substantia nigra (SN): trend to decrease
